Measurements taken from patent US20170190671A1, “BIS(ARYL)CATECHOL DERIVATIVES AS HERBICIDES” (E I DU PONT DE NEMOURS AND COMPANY, priority 2014, published 2017).

What was measured:
Experiment in all cases: Test C preemergence
Assay type in all cases: in vivo
[1] = tested on: velvetleaf (Abutilon theophrasti); conditions: Abutilon theophrasti, pre-emergence, preemergence, scale 0 to 100, read-out: Plant response rating, Velvetleaf
Summary of the method: (§1)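 Seeds sown in a loam soil and sand blend were treated preemergence; plants in peat-moss/vermiculite medium were sprayed at the 1- to 4-leaf stage (2-18 cm). Chemicals were in a non-phytotoxic surfactant-containing solvent. After 13 to 15 days in a greenhouse, injury was visually rated against controls on a 0-100 scale.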

[2] = tested on: barnyardgrass (Echinochloa crus-galli); conditions: Echinochloa crus-galli, pre-emergence, preemergence, scale 0 to 100, read-out: Plant response rating, Barnyardgrass
Summary of the method: as §1

[3] = tested on: ragweed (common ragweed, Ambrosia elatior); conditions: Ambrosia artemisiifolia, pre-emergence, 336 h, preemergence, scale 0 to 100, read-out: Plant response rating, Ragweed
Summary of the method: as §1

[4] = tested on: winter wheat (Triticum aestivum); conditions: Triticum aestivum, pre-emergence, 336 h, preemergence, scale 0 to 100, read-out: Plant response rating, Wheat
Summary of the method: as §1

[5] = tested on: johnsongrass (Sorghum halepense); conditions: Sorghum halepense, pre-emergence, 336 h, preemergence, scale 0 to 100, read-out: Plant response rating, Johnsongrass
Summary of the method: as §1

[6] = tested on: giant foxtail (Setaria faberii); conditions: Setaria faberi, pre-emergence, 336 h, preemergence, scale 0 to 100, read-out: Plant response rating, Foxtail, Giant
Summary of the method: as §1

[7] = tested on: soybean (Glycine max); conditions: Glycine max, pre-emergence, preemergence, scale 0 to 100, read-out: Plant response rating, Soybean
Summary of the method: as §1

[8] = tested on: Italian ryegrass (Lolium multiflorum); conditions: Lolium multiflorum, pre-emergence, 336 h, preemergence, scale 0 to 100, read-out: Plant response rating, Ryegrass, Italian
Summary of the method: as §1

[9] = tested on: morningglory (Ipomoea coccinea); conditions: Ipomoea, pre-emergence, 336 h, preemergence, scale 0 to 100, read-out: Plant response rating, Morningglory
Summary of the method: as §1

[10] = tested on: galium (catchweed bedstraw, Galium aparine); conditions: Galium, pre-emergence, 336 h, preemergence, scale 0 to 100, read-out: Plant response rating, Galium
Summary of the method: as §1

[11] = tested on: lambsquarters (Chenopodium album); conditions: Chenopodium album, pre-emergence, 336 h, preemergence, scale 0 to 100, read-out: Plant response rating, Lambsquarters
Summary of the method: as §1

[12] = tested on: corn (Zea mays); conditions: Zea mays, pre-emergence, 336 h, preemergence, scale 0 to 100
Summary of the method: as §1

[13] = tested on: waterhemp (common waterhemp, Amaranthus rudis); conditions: Amaranthus tuberculatus, pre-emergence, preemergence, scale 0 to 100, read-out: Plant response rating, Waterhemp
Summary of the method: as §1

[14] = tested on: large (Lg) crabgrass (Digitaria sanguinalis); conditions: Digitaria sanguinalis, pre-emergence, 336 h, preemergence, scale 0 to 100, read-out: Plant response rating, Crabgrass, Large
Summary of the method: as §1

[15] = tested on: pigweed (Amaranthus retroflexus); conditions: Amaranthus retroflexus, pre-emergence, 336 h, preemergence, scale 0 to 100, read-out: Plant response rating, Pigweed
Summary of the method: as §1

SMILES: N#Cc1cccc(Oc2ncc(Cl)cn2)c1Oc1ncc(Cl)cn1 [Compound 3, 2,3-bis[(5-chloro-2-pyrimidinyl)oxy]benzonitrile]
- pest or weed control at 31 g/ha ([1]; 31 g ai/ha): 80%
- pest or weed control at 62 g/ha ([1]; 62 g ai/ha): 100%
- pest or weed control at 125 g/ha ([1]; 125 g ai/ha): 100%
- pest or weed control at 250 g/ha ([1]; 250 g ai/ha): 100%
- pest or weed control at 31 g/ha ([2]; 31 g ai/ha): 80%
- pest or weed control at 62 g/ha ([2]; 62 g ai/ha): 100%
- pest or weed control at 125 g/ha ([2]; 125 g ai/ha): 100%
- pest or weed control at 250 g/ha ([2]; 250 g ai/ha): 100%
- pest or weed control at 31 g/ha ([3]; 31 g ai/ha): 90%
- pest or weed control at 125 g/ha ([3]; 125 g ai/ha): 90%
- pest or weed control at 250 g/ha ([3]; 250 g ai/ha): 100%
- plant injury at 31 g/ha ([4]; 31 g ai/ha): 5%
- plant injury at 62 g/ha ([4]; 62 g ai/ha): 45%
- plant injury at 125 g/ha ([4]; 125 g ai/ha): 90%
- plant injury at 250 g/ha ([4]; 250 g ai/ha): 90%
- pest or weed control at 31 g/ha ([5]; 31 g ai/ha): 45%
- pest or weed control at 62 g/ha ([5]; 62 g ai/ha): 75%
- pest or weed control at 125 g/ha ([5]; 125 g ai/ha): 100%
- pest or weed control at 31 g/ha ([6]; 31 g ai/ha): 100%
- pest or weed control at 62 g/ha ([6]; 62 g ai/ha): 100%
- pest or weed control at 125 g/ha ([6]; 125 g ai/ha): 100%
- plant injury at 31 g/ha ([7]; 31 g ai/ha): 40%
- plant injury at 62 g/ha ([7]; 62 g ai/ha): 40%
- plant injury at 125 g/ha ([7]; 125 g ai/ha): 85%
- plant injury at 250 g/ha ([7]; 250 g ai/ha): 95%
- pest or weed control at 31 g/ha ([8]; 31 g ai/ha): 5%
- pest or weed control at 62 g/ha ([8]; 62 g ai/ha): 35%
- pest or weed control at 125 g/ha ([8]; 125 g ai/ha): 90%
- pest or weed control at 250 g/ha ([8]; 250 g ai/ha): 90%
- pest or weed control at 31 g/ha ([9]; 31 g ai/ha): 45%
- pest or weed control at 62 g/ha ([9]; 62 g ai/ha): 98%
- pest or weed control at 125 g/ha ([9]; 125 g ai/ha): 100%
- pest or weed control at 31 g/ha ([10]; 31 g ai/ha): 90%
- pest or weed control at 62 g/ha ([10]; 62 g ai/ha): 90%
- pest or weed control at 125 g/ha ([10]; 125 g ai/ha): 90%
- pest or weed control at 31 g/ha ([11]; 31 g ai/ha): 100%
- pest or weed control at 62 g/ha ([11]; 62 g ai/ha): 100%
- pest or weed control at 125 g/ha ([11]; 125 g ai/ha): 100%
- Corn plant response rating (crop injury, 0 = no effect, 100 = complete kill) at 31 g/ha ([12]; 31 g ai/ha): 20%
- Corn plant response rating (crop injury, 0 = no effect, 100 = complete kill) at 62 g/ha ([12]; 62 g ai/ha): 70%
- Corn plant response rating (crop injury, 0 = no effect, 100 = complete kill) at 125 g/ha ([12]; 125 g ai/ha): 85%
- pest or weed control at 31 g/ha ([13]; 31 g ai/ha): 100%
- pest or weed control at 62 g/ha ([13]; 62 g ai/ha): 100%
- pest or weed control at 125 g/ha ([13]; 125 g ai/ha): 100%
- pest or weed control at 250 g/ha ([13]; 250 g ai/ha): 100%
- pest or weed control at 31 g/ha ([14]; 31 g ai/ha): 100%
- pest or weed control at 62 g/ha ([14]; 62 g ai/ha): 100%
- pest or weed control at 125 g/ha ([14]; 125 g ai/ha): 100%
- pest or weed control at 31 g/ha ([15]; 31 g ai/ha): 100%
- pest or weed control at 62 g/ha ([15]; 62 g ai/ha): 100%
- pest or weed control at 125 g/ha ([15]; 125 g ai/ha): 100%
